Key:
[1] = classification on solubility and permeability; cited from earlier work
[2] = Compatibility of pH adjustors with the formulation; format: physicochemical; conditions: in ibuprofen gel formulation
Method: Hydrochloric acid and citric acid were tested as pH adjustors. […] As a consequence, it was selected as the preferred pH adjusting agent. Further details of the ibuprofen gels of the invention are set out in Example 1.

For `c1ccc(-c2ccc(C(c3ccccc3)n3ccnc3)cc2)cc1` (centres unmarked) [Bifonazole], the BCS class [1] is listed as “Class IV”.
For `COc1ccc2cc([C@H](C)C(=O)O)ccc2c1` [Naproxen], the BCS class [1] is listed as “Class II”.
For `NS(=O)(=O)c1cc2c(cc1Cl)NCNS2(=O)=O` [Hydrochlorothiazide], the BCS class [1] is listed as “class II”.
For `CN/C(=N/CCSCc1nc[nH]c1C)NC#N` [Cimetidine], the BCS class [1] is listed as “Class III”.
For `COCCc1ccc(OCC(O)CNC(C)C)cc1` (centres unmarked) [Metoprolol], the BCS class [1] is listed as “Class I”.
For `O=C(O)Cc1ccccc1Nc1c(Cl)cccc1Cl` [Diclofenac], the BCS class [1] is listed as “class II”.
With `Cl` [Hydrochloric acid] the “compatibility / effect as pH adjustor” value [2] was “precipitated and was not compatible with the formulation”.
With `O=C(O)CC(O)(CC(=O)O)C(=O)O` [Citric acid] the “compatibility / effect as pH adjustor” value [2] was “changed the pH significantly”.
